According to patent US20150181873A1, “HERBICIDE-RESISTANT SUNFLOWER PLANTS, POLYNUCLEOTIDES ENCODING HERBICIDE=RESISTANT ACETO HYDROXY ACID SYNTHASE LARGE SUBUNIT PROTEINS, AND METHODS OF USE” (NIDERA S.A., priority 2013, published 2015):

How the values were obtained:
[1] = system: Sunflower line S4897; experiment: Greenhouse spray injury rating, line S4897; format: in vivo, Helianthus annuus
Excerpt: (§1) Sunflower lines S4897, Clearfield® sunflower varieties A, B, C and a conventional non-Clearfield variety were sprayed with three rates of imazamox (Raptor™), 100, 200 and 300 gm ai/ha plus 0.5% Sun It II and two rates of imazapyr (Arsenal™) 160 and 360 gm ai/ha plus 0.5% Sun It II when the plants were at the two to three leaf stage. Ratings were taken at 14 days after application (DAT) for injury. Injury was rated on a scale from 0 to 9 where 0=no injury to 9=dead plant. Twelve plants were sprayed per herbicide/rate treatment. Statistical analysis was conducted with STATGRAPHICS Plus 5.0 by using ANOVA and LSD procedures.
(§2) After plants were sprayed, it was realized that a height difference between S4897 and other sunflower varieties would have impacted the actual herbicide dose that was delivered. The spray boom height had been calibrated against S4897 and since the other varieties were taller and closer to the boom they would have received a greater dose of herbicide. Rates were recalibrated for the other varieties to determine the approximate dose they would have received. Assessments were made as presented in Table 2 since it was not possible to make a direct rate comparison due to the effect of the height. For example injury scores were compare for S4897 treated imazamox rate 100 gm ai/ha to the other varieties treated at 75 gm ai/ha. The treatment dose of 300 gm ai/ha for line S4897 was equivalent to the treatment of 200 gm ai/ha for the other varieties, which […].

[2] = system: Clearfield sunflower variety A; experiment: Greenhouse spray injury rating, Clearfield variety A; format: in vivo, Helianthus annuus
Excerpt: as §1, §2

[3] = system: Clearfield sunflower variety B; experiment: Greenhouse spray injury rating, Clearfield variety B; format: in vivo, Helianthus annuus; settings: scale 0-9
Excerpt: as §1, §2

[4] = system: Clearfield sunflower variety C; experiment: Greenhouse spray injury rating, Clearfield variety C; format: in vivo, Helianthus annuus; settings: scale 0-9
Excerpt: as §1, §2

[5] = system: Conventional non-Clearfield sunflower variety; experiment: Greenhouse spray injury rating, conventional variety; format: in vivo, Helianthus annuus; settings: scale 0-9
Excerpt: as §1, §2

[6] = system: AHAS of S4897 sunflower (Ala107-to-Thr AHASL1); experiment: AHAS activity analysis of young leaves; format: biochemical, Helianthus annuus; settings: S4897 vs Clearfield and conventional non-Clearfield variety; higher concentration of imazamox (FIG. 7)
Method: FIG. 7 is graphical illustration of a comparison of the inhibition of AHAS by Raptor for a non-Clearfield variety, a Clearfield variety and S4897 sunflower plants as described in Example 5.
FIG. 8 is graphical illustration of a comparison of the inhibition of AHAS by Glean for a non-Clearfield variety, a Clearfield variety and S4897 sunflower plants as described in Example 5.
AHAS activity analysis was also conducted by selecting actively growing young leaves from plants that were not sprayed with herbicide at approximately four weeks after planting.

[7] = system: wild-type sunflower plants; experiment: Greenhouse imazamox spray test (FIG. 3/4), wild-type; format: in vivo, Helianthus annuus; settings: imazamox 100 or 200 g ai/ha
Method: (§3) The S4897 and IMISUN-1 sunflower plants were spray-treated with imazamox at rate of 200 g ai/ha. […] The photograph was taken a few days after the plants were spray treated.
(§4) FIG. 4 is graphical illustration of herbicide injury in a greenhouse test following the spray treatment of IMISUN-1, wild-type, and S4897 sunflower plants with imazamox at either 100 (light columns) or 200 g ai/ha (dark columns). […] Herbicide injury was evaluated 17 days after the imazamox application.

[8] = system: S4897 sunflower plants; experiment: Greenhouse imazamox spray test (FIG. 3/4), S4897; format: in vivo, Helianthus annuus; settings: S4897 vs IMISUN-1 and wild-type; imazamox 100 and 200 g ai/ha; 17 days after application
Method: as §3, §4

[9] = system: S4897 plants; experiment: Field trial of resistance to imazapic; format: in vivo, Helianthus annuus; settings: S4897 vs IMISUN-1 (Ala190-to-Val); field trials in Argentina; no data presented
Method: In field trials in Argentina, S4897 plants were tested for resistance to imazapic. […] This trial had single row plots and was treated on a windy day, so the actual herbicide dose reaching the plants was likely less than was applied.

[10] = imazamox 300 gm ai/ha, scale 0-9

## COCc1cnc(C2=NC(C)(C(C)C)C(=O)N2)c(C(=O)O)c1 (stereo not shown) [Imazamox, imazamox]
[1]; imazamox 100 gm ai/ha (100/75), scale 0=no injury to 9=dead plant
  Injury at 14 DAT: 0.5 a
[1]; imazamox 200 gm ai/ha (column 200/150), scale 0-9
  Injury at 14 DAT: 0.8 a
[1]; imazamox 200 gm ai/ha (column 200/150), scale 0-9, listed as imazamox
  Injury at 14 DAT: little to no injury
[1]; [10]
  Injury at 14 DAT: 0.8 a
[1]; imazamox 300 gm ai/ha, scale 0-9, listed as imazamox
  Injury at 14 DAT: very little injury
[2]; imazamox 75 gm ai/ha (100/75), scale 0-9
  Injury at 14 DAT: 4.3 c
[2]; imazamox 150 gm ai/ha (column 200/150), scale 0-9
  Injury at 14 DAT: 4.6 c
[2]; imazamox 150 gm ai/ha (column 200/150), scale 0-9, listed as imazamox
  Injury at 14 DAT: significantly in juried and had stopped growing
[2]; [10]
  Injury at 14 DAT: 6.5 days
[3]; imazamox 75 gm ai/ha (100/75)
  Injury at 14 DAT: 1.9 b
[3]; imazamox 150 gm ai/ha
  Injury at 14 DAT: 4.8 c
[3]; imazamox 300 gm ai/ha
  Injury at 14 DAT: 5.3 c
[4]; imazamox 75 gm ai/ha (100/75)
  Injury at 14 DAT: 1.8 b
[4]; imazamox 150 gm ai/ha
  Injury at 14 DAT: 2.9 b
[4]; imazamox 300 gm ai/ha
  Injury at 14 DAT: 4.6 b
[5]; imazamox 75 gm ai/ha (100/75)
  Injury at 14 DAT: 7.2 days
[5]; imazamox 150 gm ai/ha
  Injury at 14 DAT: 8.2 days
[5]; imazamox 300 gm ai/ha
  Injury at 14 DAT: 8.7 e
[6]
  inhibition of AHAS activity: less inhibition
[7]
  survival following spray treatment: did not survive
[8]
  herbicide injury / resistance or tolerance: significantly greater resistance or tolerance

## Cc1cnc(C2=NC(=O)C(C)(C(C)C)N2)c(C(=O)O)c1 (stereo not shown) [imazapic]
[9]
  resistance to imazapic: clearly superior
